Earlier results as cited in patent US12533310B2, “Fragrance or flavor composition” (Takasago International Corporation, priority 2019, dated 2026).

What was measured:
olfactory receptor OR2W1 = biological target: T1, olfactory receptor OR2W1 (Homo sapiens, UniProt Q9Y3N9); settings: background art, Patent Literature 4; cited from earlier work
T1 sequence (Q9Y3N9 1-320): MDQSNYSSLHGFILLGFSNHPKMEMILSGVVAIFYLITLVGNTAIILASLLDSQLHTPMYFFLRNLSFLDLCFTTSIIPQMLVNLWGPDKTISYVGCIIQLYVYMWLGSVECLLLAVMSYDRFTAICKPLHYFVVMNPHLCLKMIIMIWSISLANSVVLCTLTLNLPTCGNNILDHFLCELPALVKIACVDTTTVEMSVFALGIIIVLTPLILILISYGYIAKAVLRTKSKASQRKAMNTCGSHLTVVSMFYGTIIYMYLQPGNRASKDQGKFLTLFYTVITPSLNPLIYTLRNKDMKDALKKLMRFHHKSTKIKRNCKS

[1] = background art, Patent Literature 4; cited from earlier work

CC(C)c1cccc(C(C)CC=O)c1 (centres unmarked) [florhydral]
inhibition of the activity of OR2W1 (olfactory receptor OR2W1): inhibiting the activity of this OR2W1
suppression of offensive odor induced by hexanoic acid in sensory testing [1]: suppress an offensive odor induced by hexanoic acid
